Assay results as given in patent publication EP0118036A1, “Biologically active ketone derivative, preparation and use” (THE WELLCOME FOUNDATION LIMITED, priority 1983, dated 1984).
Where a name gives a salt, the structure may show the parent alone.

Tests used:
[1] = free base; cited from earlier work
[2] = Storage stability of tablets (Examples 3, 4, 10A, 10B); assay type: physicochemical; conditions: summary in words of Table II
Description: In order to compare the storage stability of the tablets of Examples 3 and 4 with similar tablets containing the hydrochloride salt of 2-tert-butylamino-3'-chloropropiophenone, tablets having the following compositions were prepared in an analogous manner to that described in Examples 3 and 4:-
The four sets of tablets (3, 4, 10A and 10B) were tested for stability. Testing was carried out on tablets: • (a) stored at 50°C in closed bottles; and • (b) stored at 37°C in open bottles under a relative humidity of 75%.
The results are summarised in the following Table II in which the data are assay values expressed as percentage of labeled strength of the active salt, and "mo." indicates month: […]

[3] = test system: tetrabenazine induced sedation; assay: Antagonism of tetrabenazine induced sedation (modified Vernier method); assay type: in vivo, Mice; conditions: for Percent Antagonism of Tetrabenazine Induced Sedation: CD1 male mice, 35 mg/kg tetrabenazine hydrochloride ip
Description: Antagonism of tetrabenazine induced sedation was measured using a modification of the method of Vernier, et al., First Hahnemann Symposium on Psychosomatic Medicine, ed. Nodim and Moyer, pub. Lea and Febiger, Philadelphia, 1962.
Mice, three groups of 12 CD1 males each, were injected intraperitoneally (ip) with a solution of 2-tert-butylamino-3'-chlorogropiophenone hydrochloride (Cpd A) or 2-tert-butylamino-3'-chloropropiophenone maleate (Cpd B) or with saline. Thirty minutes later each of the mice was injected ip with a solution containing 35 mg/kg tetrabenazine hydrochloride. Thirty minutes after the injection of tetrabenazine each mouse was examined for its level of exploratory behavior which was scored on a modification of the arbitrary scale defined by Vernier, et al. The dose of tetrabenazine used was sufficient to cause 90 to 100 percent of the mice to remain motionless even when placed in a new environment. In the test results reported 100 percent would represent total reversal of tetrabenazine effects.
The doses of Cpd B are equivalent to the corresponding doses of Cpd A on a molar basis.

[4] = Stability of salts with conventional pharmaceutical carriers or excipients; assay type: physicochemical; conditions: tableting excipients, particularly magnesium stearate and stearic acid; result in words
From the text: It will be appreciated that, in order for the salts to be used in medical therapy, it is necessary to formulate them into pharmaceutical compositions suitable for administration to the patient. The formulation of such compositions entails the admixture or contacting of the salts with various pharmaceutical carriers or excipients. Examples of solid pharmaceutical compositions which are mentioned in British Specification 1,340,032 are tablets, cachets, capsules and suppositories. Of these various types of composition, tablets and capsules are particularly preferred forms as it is generally desired to administer the active compound by the oral route. […] The formulation of the salts of the free base in capsules also presents problems because gelatin, which is commonly used to make the capsule shell, is hydrophilic and therefore creates a humid environment within the capsule, which has a deleterious effect on the 2-tert-butylamino-3'chloropropiophenone salt present in the capsule. It will therefore be appreciated that considerable difficulty arose in finding a salt of 2-tert-butylamino-3'-chloropropiophenone which has sufficient stability when formulated in pharmaceutical compositions.
A further advantage of the maleate salt is that it is much less corrosive than, for example, the hydrochloride salt which tends to corrode apparatus used in its preparation and formulation. […]

Charles River CD1 mice = assay: 14-day oral (gavage) toxicity in mice; assay type: in vivo; conditions: 260 mg/kg per day for 14 days, gavage in 0.5 percent carboxymethylcellulose, four males and four females
Description: 2-Tert-butylamino-3'-chloropropiophenone maleate was administered by gavage in 0.5 percent carboxymethylcellulose to Charles River CD1 mice (four males and four females) at a dose of 260 mg/kg per day for 14 days.

[5] = Comparative bulk storage stability of salts of 2-tert-butylamino-3'-chloropropiophenone; assay type: physicochemical; conditions: bulk salt, result in words
From the text: The propiophenone moiety breaks down into hydroxyketones, a diketone and meta-chlorobenzoic acid. It is of course an important desideratum for : a pharmaceutical product that it should have a reasonably good bulk stability in order to avoid or reduce wastage resulting from decomposition of the active moiety during the period between its synthesis and its use in formulating the final dosage form.
Small amounts of various salts of 2-tert-butylamino-3'-chloropropiophenone were each placed in a clean borosilicate glass vial which was sealed with a Teflon-faced rubber closure. The samples were then placed in an oven maintained at 70°C (except for the formate which was stored at 75°C) and visual comparisons were made over a period of 1-3 days. The observations are recorded in the following Table I: […]

Q: Which pKa [1] does the source give for `CC(NC(C)(C)C)C(=O)c1cccc(Cl)c1` (stereo not drawn) [2-tert-butylamino-3'-chloropropiophenone] here?
A: 8.5-9

Q: Which pKa [1] does the source give for `CC(NC(C)(C)C)C(=O)c1cccc(F)c1` (stereo not drawn) [3'-fluoro analogue] here?
A: 8.5-9

Q: For `CC(NC(C)(C)C)C(=O)c1cccc(Cl)c1` (stereo not drawn) [Cpd A, 2-tert-butylamino-3'-chlorogropiophenone hydrochloride], which “stability in the formulated tablets” value [2] is on record?
A: limited stability

Q: What about the “Percent Antagonism of Tetrabenazine Induced Sedation” value (from here on “Percent Antagonism”) ([3]; dose 12.5 mg/kg (ip)) of the same compound?
A: 17.5%

Q: What about the “Percent Antagonism” value ([3]; dose 25 mg/kg (ip)) of the same compound?
A: 50%

Q: And the “Percent Antagonism” value ([3]; dose 50 mg/kg (ip))?
A: 62.5%

Q: What about the “stability in association with conventional pharmaceutical carriers and excipients” value [4] of the same compound?
A: limited stability

Q: Which results are given for `CC(NC(C)(C)C)C(=O)c1cccc(Cl)c1.O=C(O)/C=C\C(=O)O` (stereo not drawn) [Cpd B, 2-tert-butylamino-3'-chloropropiophenone maleate]?
A: stability in the formulated tablets [2]: relatively stable; Percent Antagonism of Tetrabenazine Induced Sedation ([3]; dose 16.1 mg/kg (ip)): 27.5%; Percent Antagonism of Tetrabenazine Induced Sedation ([3]; dose 32.2 mg/kg (ip)): 62.5%; Percent Antagonism of Tetrabenazine Induced Sedation ([3]; dose 64.4 mg/kg (ip)): 60%; antidepressant activity in the tetrabenazine-induced sedation test ([3]; rodents, result in words): good antidepressant activity; survival (Charles River CD1 mice): All of the mice survived; stability in association with conventional pharmaceutical carriers and excipients [4]: advantageous stability characteristics

Q: With `CC(NC(C)(C)C)C(=O)c1cccc(Cl)c1` (stereo not drawn) [napthalenesulphonate monohydrate] as the compound, how does the stability upon storage [5] read?
A: unstable upon storage
